From patent US20060069132A1, “Azolecarboxamide herbicides” (priority 2004, published 2006)

Experiments:
large crabgrass = assay: Test C pre-/postemergence herbicide test; assay type: in vivo, Digitaria sanguinalis
Procedure, shortened: (§1)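 Visual ratings on a 0–100 scale (100 = complete control) made versus untreated controls after 12 to 14 greenhouse days. Test chemicals, formulated in surfactant-containing non-phytotoxic solvent, applied preemergence to planted seeds or postemergence to 1- to 4-leaf plants (2 to 18 cm).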

johnsongrass = assay: Test C pre-/postemergence herbicide test; assay type: in vivo, Sorghum halepense
Procedure, shortened: as §1

rice = assay: Test C flooded paddy test; assay type: in vivo, Oryza sativa; settings: for Plant response rating, Rice: 500 g ai/ha, visual rating after 12 to 14 days
Procedure, shortened: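 Injury scored visually against controls on a 0 (no effect) to 100 (complete control) scale, 12 to 14 days after treatment in greenhouse. Flooded paddy plants treated at 2-leaf stage; postemergence plants at 1- to 4-leaf stage, 2 to 18 cm tall.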

blackgrass = assay: Test C postemergence herbicide test; assay type: in vivo, Alopecurus myosuroides; settings: for Blackgrass plant response rating: 500 g ai/ha
Procedure, shortened: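 After a postemergence application at 1 to 4 leaves (plants 2–18 cm high), or at 2 leaves for barnyardgrass in flooded paddy, plants stayed in the greenhouse for 12 to 14 days. Damage was then judged visually relative to control plants, with 100 indicating complete control.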

lambsquarters = assay: Test C pre-/postemergence herbicide test; assay type: in vivo, Chenopodium album
Procedure, shortened: as §1

corn = assay: Test C pre-/postemergence herbicide test; assay type: in vivo, Zea mays
Procedure, shortened: as §1

kochia = assay: Test C pre-/postemergence herbicide test; assay type: in vivo, Kochia scoparia
Procedure, shortened: as §1

ducksalad = assay: Test C flooded paddy test; assay type: in vivo, Heteranthera limosa; settings: for Plant response rating, Ducksalad: 500 g ai/ha, visual rating after 12 to 14 days
woolly cupgrass = assay: Test C pre-/postemergence herbicide test; assay type: in vivo, Eriochloa villosa
Procedure, shortened: as §1

[1] = 62 g ai/ha, preemergence, scale 0 to 100
[2] = 125 g ai/ha, scale 0 (no effect) to 100 (complete control), visual, 12 to 14 days, preemergence
[3] = 250 g ai/ha, scale 0-100, preemergence
[4] = 500 g ai/ha, scale 0 to 100 (0 no effect, 100 complete control), visual, 12 to 14 days, preemergence
[5] = Postemergence, 500 g ai/ha, scale 0 to 100
[6] = Postemergence, 250 g ai/ha, scale 0 to 100, 0 no effect, 100 complete control
[7] = postemergence, 125 g ai/ha, scale 0 to 100
[8] = postemergence, 62 g ai/ha, scale 0 to 100
[9] = 125 g ai/ha, scale 0 to 100 (0 no effect, 100 complete control)
[10] = 250 g ai/ha, scale of 0 to 100, 0 is no effect, 100 is complete control
[11] = scale 0 to 100 (0 no effect, 100 complete control)

## CCn1nc(C(C)(C)C)cc1C(=O)Nc1cccc(OC(F)(F)C(F)F)c1 [Compound 333]
Large crabgrass; [1]
  Plant response rating, Crabgrass, Large: 20
Large crabgrass; [2]
  Plant response rating, Crabgrass, Large: 70
Large crabgrass; [3]
  Plant response rating, Crabgrass, Large: 100
Large crabgrass; [4]
  Plant response rating, Crabgrass, Large: 100
Large crabgrass; [5]
  Crabgrass, Large plant response rating: 10
Large crabgrass; [6]
  Plant response rating, Crabgrass, Large: 5
Large crabgrass; [7]
  Plant response rating, Crabgrass, Large: 5
Large crabgrass; [8]
  Plant response rating, Crabgrass, Large: 0
johnsongrass; [1]
  Plant response rating, Johnsongrass: 0
johnsongrass; [2]
  Plant response rating, Johnsongrass: 0
johnsongrass; [3]
  Plant response rating, Johnsongrass: 5
johnsongrass; [4]
  Plant response rating, Johnsongrass: 5
johnsongrass; [5]
  Johnsongrass plant response rating: 0
johnsongrass; [6]
  Plant response rating, Johnsongrass: 0
johnsongrass; [7]
  Plant response rating, Johnsongrass: 0
johnsongrass; [8]
  Plant response rating, Johnsongrass: 0
rice; 62 g ai/ha, scale 0 to 100
  Rice plant response rating: 0
rice; [9]
  Rice plant response rating: 0
rice; [10]
  Rice plant response rating: 15
rice; [11]
  Plant response rating, Rice: 20
blackgrass; Postemergence, scale 0 to 100
  Blackgrass plant response rating: 55
blackgrass; [6]
  Plant response rating, Blackgrass: 50
blackgrass; [7]
  Plant response rating, Blackgrass: 40
blackgrass; [8]
  Plant response rating, Blackgrass: 30
lambsquarters; [1]
  Plant response rating, Lambsquarters: 95
lambsquarters; [2]
  Plant response rating, Lambsquarters: 100
lambsquarters; [3]
  Plant response rating, Lambsquarters: 100
lambsquarters; [4]
  Plant response rating, Lambsquarters: 100
lambsquarters; [5]
  Lambsquarters plant response rating: 100
lambsquarters; [6]
  Plant response rating, Lambsquarters: 80
lambsquarters; [7]
  Plant response rating, Lambsquarters: 80
lambsquarters; [8]
  Plant response rating, Lambsquarters: 60
corn; [1]
  Plant response rating, Corn: 0
corn; [2]
  Plant response rating, Corn: 0
corn; [3]
  Plant response rating, Corn: 0
corn; [4]
  Plant response rating, Corn: 0
corn; [5]
  Corn plant response rating: 5
corn; [6]
  Plant response rating, Corn: 5
corn; [7]
  Plant response rating, Corn: 5
corn; [8]
  Plant response rating, Corn: 5
kochia; [1]
  Plant response rating, Kochia: 80
kochia; [2]
  Plant response rating, Kochia: 100
kochia; [3]
  Plant response rating, Kochia: 100
kochia; [4]
  Plant response rating, Kochia: 100
kochia; [5]
  Kochia plant response rating: 100
kochia; [6]
  Plant response rating, Kochia: 100
kochia; [7]
  Plant response rating, Kochia: 100
kochia; [8]
  Plant response rating, Kochia: 90
ducksalad; 62 g ai/ha, scale 0 to 100
  Ducksalad plant response rating: 0
ducksalad; [9]
  Ducksalad plant response rating: 0
ducksalad; [10]
  Ducksalad plant response rating: 0
ducksalad; [11]
  Plant response rating, Ducksalad: 25
Woolly cupgrass; [1]
  Plant response rating, Cupgrass, Woolly: 0
Woolly cupgrass; [2]
  Plant response rating, Cupgrass, Woolly: 0
Woolly cupgrass; [3]
  Plant response rating, Cupgrass, Woolly: 0
Woolly cupgrass; [4]
  Plant response rating, Cupgrass, Woolly: 30
Woolly cupgrass; [5]
  Cupgrass, Woolly plant response rating: 10
Woolly cupgrass; [6]
  Plant response rating, Cupgrass, Woolly: 5
Woolly cupgrass; [7]
  Plant response rating, Cupgrass, Woolly: 0
Woolly cupgrass; [8]
  Plant response rating, Cupgrass, Woolly: 0

## CCNC(=O)c1cccc(NC(=O)c2nn(C(C)(C)CC)nc2CC)c1 [Compound 376]
Large crabgrass; [1]
  Plant response rating, Crabgrass, Large: 80
Large crabgrass; 125 g ai/ha, preemergence
  Plant response rating (0 = no effect, 100 = complete control), Crabgrass, Large: 100
Large crabgrass; [3]
  Plant response rating, Crabgrass, Large: 100
Large crabgrass; [4]
  Plant response rating, Crabgrass, Large: 100
johnsongrass; [1]
  Plant response rating, Johnsongrass: 60
johnsongrass; 125 g ai/ha, preemergence
  Plant response rating (0 = no effect, 100 = complete control), Johnsongrass: 80
johnsongrass; [3]
  Plant response rating, Johnsongrass: 100
johnsongrass; [4]
  Plant response rating, Johnsongrass: 100
rice; 62 g ai/ha, scale 0 to 100
  Rice plant response rating: 70
rice; [9]
  Rice plant response rating: 75
rice; [10]
  Rice plant response rating: 75
rice; [11]
  Plant response rating, Rice: 80
blackgrass; Postemergence, scale 0 to 100
  Blackgrass plant response rating: 65
blackgrass; [6]
  Plant response rating, Blackgrass: 50
blackgrass; [7]
  Plant response rating, Blackgrass: 40
blackgrass; [8]
  Plant response rating, Blackgrass: 40
lambsquarters; [1]
  Plant response rating, Lambsquarters: 100
lambsquarters; 125 g ai/ha, preemergence
  Plant response rating (0 = no effect, 100 = complete control), Lambsquarters: 100
lambsquarters; [3]
  Plant response rating, Lambsquarters: 100
lambsquarters; [4]
  Plant response rating, Lambsquarters: 100
corn; [1]
  Plant response rating, Corn: 20
corn; 125 g ai/ha, preemergence
  Plant response rating (0 = no effect, 100 = complete control), Corn: 40
corn; [3]
  Plant response rating, Corn: 45
corn; [4]
  Plant response rating, Corn: 50
kochia; [1]
  Plant response rating, Kochia: 95
kochia; 125 g ai/ha, preemergence
  Plant response rating (0 = no effect, 100 = complete control), Kochia: 100
kochia; [3]
  Plant response rating, Kochia: 100
kochia; [4]
  Plant response rating, Kochia: 100
ducksalad; 62 g ai/ha, scale 0 to 100
  Ducksalad plant response rating: 25
ducksalad; [9]
  Ducksalad plant response rating: 85
ducksalad; [10]
  Ducksalad plant response rating: 85
ducksalad; [11]
  Plant response rating, Ducksalad: 85
Woolly cupgrass; [1]
  Plant response rating, Cupgrass, Woolly: 5
Woolly cupgrass; 125 g ai/ha, preemergence
  Plant response rating (0 = no effect, 100 = complete control), Cupgrass, Woolly: 30
Woolly cupgrass; [3]
  Plant response rating, Cupgrass, Woolly: 75
Woolly cupgrass; [4]
  Plant response rating, Cupgrass, Woolly: 85

## Cc1nn(C(C)(C)C)nc1C(=O)Nc1cccc(C(=O)N(C)C)c1 [Compound 391]
Large crabgrass; [1]
  Plant response rating, Crabgrass, Large: 98
Large crabgrass; 125 g ai/ha, preemergence
  Plant response rating (0 = no effect, 100 = complete control), Crabgrass, Large: 100
Large crabgrass; [3]
  Plant response rating, Crabgrass, Large: 100
Large crabgrass; [4]
  Plant response rating, Crabgrass, Large: 100
johnsongrass; [1]
  Plant response rating, Johnsongrass: 100
johnsongrass; 125 g ai/ha, preemergence
  Plant response rating (0 = no effect, 100 = complete control), Johnsongrass: 100
johnsongrass; [3]
  Plant response rating, Johnsongrass: 100
johnsongrass; [4]
  Plant response rating, Johnsongrass: 100
rice; 62 g ai/ha, scale 0 to 100
  Rice plant response rating: 65
rice; [9]
  Rice plant response rating: 65
rice; [10]
  Rice plant response rating: 75
rice; [11]
  Plant response rating, Rice: 80
blackgrass; Postemergence, scale 0 to 100
  Blackgrass plant response rating: 65
blackgrass; [6]
  Plant response rating, Blackgrass: 55
blackgrass; [7]
  Plant response rating, Blackgrass: 45
blackgrass; [8]
  Plant response rating, Blackgrass: 40
lambsquarters; [1]
  Plant response rating, Lambsquarters: 100
lambsquarters; 125 g ai/ha, preemergence
  Plant response rating (0 = no effect, 100 = complete control), Lambsquarters: 100
lambsquarters; [3]
  Plant response rating, Lambsquarters: 100
lambsquarters; [4]
  Plant response rating, Lambsquarters: 100
corn; [1]
  Plant response rating, Corn: 80
corn; 125 g ai/ha, preemergence
  Plant response rating (0 = no effect, 100 = complete control), Corn: 80
corn; [3]
  Plant response rating, Corn: 85
corn; [4]
  Plant response rating, Corn: 85
kochia; [1]
  Plant response rating, Kochia: 100
kochia; 125 g ai/ha, preemergence
  Plant response rating (0 = no effect, 100 = complete control), Kochia: 100
kochia; [3]
  Plant response rating, Kochia: 100
kochia; [4]
  Plant response rating, Kochia: 100
ducksalad; 62 g ai/ha, scale 0 to 100
  Ducksalad plant response rating: 85
ducksalad; [9]
  Ducksalad plant response rating: 85
ducksalad; [10]
  Ducksalad plant response rating: 85
ducksalad; [11]
  Plant response rating, Ducksalad: 95
Woolly cupgrass; [1]
  Plant response rating, Cupgrass, Woolly: 70
Woolly cupgrass; 125 g ai/ha, preemergence
  Plant response rating (0 = no effect, 100 = complete control), Cupgrass, Woolly: 75
Woolly cupgrass; [3]
  Plant response rating, Cupgrass, Woolly: 80
Woolly cupgrass; [4]
  Plant response rating, Cupgrass, Woolly: 100
